Assay results as given in ChEMBL document CHEMBL4507275, “Data for DCP probe BI-2545” (2021).

Columns and labels:
[1] = target: Serine/threonine-protein kinase 26 (Homo sapiens) (UniProt Q9P289); conditions: Compound concentration 1000.0 nM
[2] = target: 3-phosphoinositide-dependent protein kinase 1 (Homo sapiens) (UniProt O15530); conditions: Compound concentration 1000.0 nM
[3] = target: Serine/threonine-protein kinase Chk2 (Homo sapiens) (UniProt O96017); conditions: Compound concentration 1000.0 nM
[4] = target: Fibroblast growth factor receptor 4 (Homo sapiens) (UniProt P22455); conditions: Compound concentration 1000.0 nM
[5] = target: Histamine H4 receptor (Homo sapiens) (UniProt Q9H3N8); conditions: Compound concentration 10.0 uM
Chain of Histamine H4 receptor (Homo sapiens) (Q9H3N8 whole entry): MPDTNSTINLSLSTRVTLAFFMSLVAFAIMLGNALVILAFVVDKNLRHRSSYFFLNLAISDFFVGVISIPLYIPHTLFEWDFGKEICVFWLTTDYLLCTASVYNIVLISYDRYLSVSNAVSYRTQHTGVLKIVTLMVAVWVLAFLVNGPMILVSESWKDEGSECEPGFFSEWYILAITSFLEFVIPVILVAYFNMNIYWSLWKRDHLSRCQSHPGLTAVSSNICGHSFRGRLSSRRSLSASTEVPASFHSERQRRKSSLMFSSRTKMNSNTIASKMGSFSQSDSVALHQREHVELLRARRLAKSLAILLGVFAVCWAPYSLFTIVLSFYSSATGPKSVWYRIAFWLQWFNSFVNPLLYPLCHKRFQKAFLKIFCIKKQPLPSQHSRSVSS

[6] = target: NUAK family SNF1-like kinase 1 (Homo sapiens) (UniProt O60285); conditions: Compound concentration 1000.0 nM
[7] = test system: Hepatocyte growth factor receptor (Homo sapiens), P08581 [M1250T]; conditions: Compound concentration 1000.0 nM
[8] = target: Alpha-2B adrenergic receptor (Homo sapiens) (UniProt P18089); conditions: Compound concentration 10.0 uM
[9] = target: Interleukin-1 receptor-associated kinase 4 (Homo sapiens) (UniProt Q9NWZ3); conditions: Compound concentration 1000.0 nM
Chain of Interleukin-1 receptor-associated kinase 4 (Homo sapiens) (Q9NWZ3 whole entry): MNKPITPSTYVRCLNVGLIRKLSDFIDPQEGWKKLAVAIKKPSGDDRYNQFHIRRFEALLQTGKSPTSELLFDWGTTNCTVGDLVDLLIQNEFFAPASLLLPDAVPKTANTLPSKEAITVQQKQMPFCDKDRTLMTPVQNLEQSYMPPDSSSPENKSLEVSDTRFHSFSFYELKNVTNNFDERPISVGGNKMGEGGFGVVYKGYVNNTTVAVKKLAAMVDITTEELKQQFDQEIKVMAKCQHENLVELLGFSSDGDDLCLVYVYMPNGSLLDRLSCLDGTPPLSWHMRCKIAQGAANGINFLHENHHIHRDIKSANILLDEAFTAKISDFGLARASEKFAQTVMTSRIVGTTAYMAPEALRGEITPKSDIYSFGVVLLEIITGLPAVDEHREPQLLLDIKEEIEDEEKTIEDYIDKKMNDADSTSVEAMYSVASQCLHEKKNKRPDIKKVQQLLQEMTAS

[10] = target: Serine/threonine-protein kinase ULK1 (Homo sapiens) (UniProt O75385); conditions: Compound concentration 1000.0 nM
[11] = target: Serine/threonine-protein kinase 32A (Homo sapiens) (UniProt Q8WU08); conditions: Compound concentration 1000.0 nM
[12] = target: Sodium-dependent serotonin transporter (Homo sapiens) (UniProt P31645); conditions: Compound concentration 10.0 uM
[13] = target: Cyclin-dependent kinase 14 (Homo sapiens) (UniProt O94921); conditions: Compound concentration 1000.0 nM
[14] = target: Beta-3 adrenergic receptor (Homo sapiens) (UniProt P13945); conditions: Compound concentration 10.0 uM
[15] = target: Serine/threonine-protein kinase Nek4 (Homo sapiens) (UniProt P51957); conditions: Compound concentration 1000.0 nM
[16] = target: T1, 5-hydroxytryptamine receptor 3A (Homo sapiens) (UniProt P46098); conditions: Compound concentration 10.0 uM
T1 sequence (whole entry): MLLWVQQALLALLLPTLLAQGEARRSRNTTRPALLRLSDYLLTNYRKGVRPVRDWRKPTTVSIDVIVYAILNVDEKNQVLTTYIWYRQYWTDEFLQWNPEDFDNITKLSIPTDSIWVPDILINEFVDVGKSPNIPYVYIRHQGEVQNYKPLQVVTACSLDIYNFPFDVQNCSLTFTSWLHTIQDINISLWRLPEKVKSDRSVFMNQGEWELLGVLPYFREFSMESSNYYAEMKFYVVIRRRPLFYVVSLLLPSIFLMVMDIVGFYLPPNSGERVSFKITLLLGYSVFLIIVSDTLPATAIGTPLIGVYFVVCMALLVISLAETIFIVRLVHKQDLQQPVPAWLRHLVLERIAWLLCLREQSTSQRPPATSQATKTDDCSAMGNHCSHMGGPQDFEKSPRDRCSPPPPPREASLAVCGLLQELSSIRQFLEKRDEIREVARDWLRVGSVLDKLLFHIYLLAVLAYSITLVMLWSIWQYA

[17] = target: Aurora kinase C (Homo sapiens) (UniProt Q9UQB9); conditions: Compound concentration 1000.0 nM
[18] = target: Dual specificity mitogen-activated protein kinase kinase 1 (Homo sapiens) (UniProt Q02750); conditions: Compound concentration 1000.0 nM
Chain of Dual specificity mitogen-activated protein kinase kinase 1 (Homo sapiens) (Q02750 whole entry): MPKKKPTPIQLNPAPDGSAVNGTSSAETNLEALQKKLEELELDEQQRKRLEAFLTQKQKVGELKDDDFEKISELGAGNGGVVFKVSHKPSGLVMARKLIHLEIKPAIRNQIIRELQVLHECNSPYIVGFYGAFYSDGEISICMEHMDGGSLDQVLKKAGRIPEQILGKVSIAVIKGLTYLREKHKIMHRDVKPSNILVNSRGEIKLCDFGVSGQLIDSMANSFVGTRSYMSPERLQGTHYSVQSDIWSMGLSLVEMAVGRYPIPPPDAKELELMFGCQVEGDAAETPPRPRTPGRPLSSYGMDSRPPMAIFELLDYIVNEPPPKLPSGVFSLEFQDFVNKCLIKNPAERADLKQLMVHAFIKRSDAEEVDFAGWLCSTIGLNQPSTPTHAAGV

[19] = target: Mitogen-activated protein kinase kinase kinase 9 (Homo sapiens) (UniProt P80192); conditions: Compound concentration 1000.0 nM
[20] = target: Serine/threonine-protein kinase B-raf (Homo sapiens) (UniProt P15056); conditions: Compound concentration 1000.0 nM
[21] = test system: Fibroblast growth factor receptor 3 (Homo sapiens), P22607 [G697C]; conditions: Compound concentration 1000.0 nM
[22] = target: Histamine H2 receptor (Homo sapiens) (UniProt P25021); conditions: Compound concentration 10.0 uM
[23] = target: Serine/threonine-protein kinase 17A (Homo sapiens) (UniProt Q9UEE5); conditions: Compound concentration 1000.0 nM
[24] = target: Serine/threonine-protein kinase PLK3 (Homo sapiens) (UniProt Q9H4B4); conditions: Compound concentration 1000.0 nM
[25] = test system: Receptor-type tyrosine-protein kinase FLT3 (Homo sapiens), P36888 [R834Q]; conditions: Compound concentration 1000.0 nM
[26] = target: Death-associated protein kinase 3 (Homo sapiens) (UniProt O43293); conditions: Compound concentration 1000.0 nM
Chain of Death-associated protein kinase 3 (Homo sapiens) (O43293 whole entry, looked up): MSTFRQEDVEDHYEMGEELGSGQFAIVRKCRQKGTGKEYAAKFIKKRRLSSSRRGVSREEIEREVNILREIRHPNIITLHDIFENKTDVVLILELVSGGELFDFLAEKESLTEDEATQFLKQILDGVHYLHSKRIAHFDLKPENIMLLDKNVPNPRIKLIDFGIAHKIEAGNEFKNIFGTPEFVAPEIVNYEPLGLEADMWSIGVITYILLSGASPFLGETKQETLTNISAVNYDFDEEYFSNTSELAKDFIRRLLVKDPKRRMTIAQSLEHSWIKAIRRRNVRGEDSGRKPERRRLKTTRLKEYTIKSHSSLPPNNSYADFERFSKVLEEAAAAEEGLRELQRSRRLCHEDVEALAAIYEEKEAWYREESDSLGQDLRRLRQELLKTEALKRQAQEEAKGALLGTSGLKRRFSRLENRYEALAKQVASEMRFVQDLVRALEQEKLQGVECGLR

[27] = target: Serine/threonine-protein kinase Sgk1 (Homo sapiens) (UniProt O00141); conditions: Compound concentration 1000.0 nM
[28] = target: Tyrosine-protein kinase JAK1 (Homo sapiens) (UniProt P23458); conditions: Compound concentration 1000.0 nM
[29] = target: Ribosomal protein S6 kinase alpha-3 (Homo sapiens) (UniProt P51812); conditions: Compound concentration 1000.0 nM
Chain of Ribosomal protein S6 kinase alpha-3 (Homo sapiens) (P51812 whole entry): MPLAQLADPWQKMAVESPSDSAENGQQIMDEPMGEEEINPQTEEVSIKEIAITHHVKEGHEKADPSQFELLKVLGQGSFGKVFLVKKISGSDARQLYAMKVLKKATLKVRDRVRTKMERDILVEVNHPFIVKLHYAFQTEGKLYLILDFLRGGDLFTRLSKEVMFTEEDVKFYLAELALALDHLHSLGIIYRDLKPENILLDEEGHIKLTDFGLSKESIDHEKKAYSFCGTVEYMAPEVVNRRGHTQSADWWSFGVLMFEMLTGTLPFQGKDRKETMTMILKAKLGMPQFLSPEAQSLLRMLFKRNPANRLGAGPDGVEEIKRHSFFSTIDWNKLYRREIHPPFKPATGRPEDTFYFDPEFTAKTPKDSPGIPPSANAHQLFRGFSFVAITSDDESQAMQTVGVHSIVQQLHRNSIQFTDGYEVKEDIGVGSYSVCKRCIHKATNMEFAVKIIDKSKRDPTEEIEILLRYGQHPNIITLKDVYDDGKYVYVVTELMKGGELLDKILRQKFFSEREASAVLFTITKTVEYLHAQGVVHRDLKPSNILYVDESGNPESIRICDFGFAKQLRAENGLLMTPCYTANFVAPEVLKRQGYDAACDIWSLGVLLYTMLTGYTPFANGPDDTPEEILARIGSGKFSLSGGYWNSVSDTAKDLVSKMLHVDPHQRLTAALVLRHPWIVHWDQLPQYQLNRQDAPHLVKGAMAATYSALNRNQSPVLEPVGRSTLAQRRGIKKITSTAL

[30] = target: Mitogen-activated protein kinase kinase kinase kinase 5 (Homo sapiens) (UniProt Q9Y4K4); conditions: Compound concentration 1000.0 nM
Chain of Mitogen-activated protein kinase kinase kinase kinase 5 (Homo sapiens) (Q9Y4K4 whole entry, looked up): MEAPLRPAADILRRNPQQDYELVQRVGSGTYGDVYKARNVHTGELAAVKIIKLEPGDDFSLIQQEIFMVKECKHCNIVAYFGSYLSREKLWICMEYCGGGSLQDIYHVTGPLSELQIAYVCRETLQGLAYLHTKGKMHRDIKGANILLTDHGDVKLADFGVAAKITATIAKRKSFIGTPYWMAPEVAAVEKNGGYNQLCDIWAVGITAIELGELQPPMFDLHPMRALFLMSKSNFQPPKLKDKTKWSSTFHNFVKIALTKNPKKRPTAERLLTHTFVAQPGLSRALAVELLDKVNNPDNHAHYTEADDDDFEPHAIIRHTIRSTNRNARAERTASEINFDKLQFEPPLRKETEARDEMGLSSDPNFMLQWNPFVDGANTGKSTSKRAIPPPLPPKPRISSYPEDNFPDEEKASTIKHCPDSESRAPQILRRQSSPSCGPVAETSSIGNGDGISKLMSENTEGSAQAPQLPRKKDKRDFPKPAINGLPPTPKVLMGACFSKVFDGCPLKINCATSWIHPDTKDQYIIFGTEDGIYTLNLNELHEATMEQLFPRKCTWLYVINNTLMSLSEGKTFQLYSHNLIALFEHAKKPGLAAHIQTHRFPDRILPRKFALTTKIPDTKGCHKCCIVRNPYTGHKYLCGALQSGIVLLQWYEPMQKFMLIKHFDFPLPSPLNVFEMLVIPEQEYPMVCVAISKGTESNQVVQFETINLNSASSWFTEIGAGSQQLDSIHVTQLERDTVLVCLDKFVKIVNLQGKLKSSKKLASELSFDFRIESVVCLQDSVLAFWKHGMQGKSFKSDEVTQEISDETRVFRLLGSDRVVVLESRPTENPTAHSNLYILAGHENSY

[31] = test system: Mast/stem cell growth factor receptor Kit (Homo sapiens), P10721 [V559D,T670I]; conditions: Compound concentration 1000.0 nM
[32] = target: Mitogen-activated protein kinase 7 (Homo sapiens) (UniProt Q13164); conditions: Compound concentration 1000.0 nM
Chain of Mitogen-activated protein kinase 7 (Homo sapiens) (Q13164 2-816 limits assumed): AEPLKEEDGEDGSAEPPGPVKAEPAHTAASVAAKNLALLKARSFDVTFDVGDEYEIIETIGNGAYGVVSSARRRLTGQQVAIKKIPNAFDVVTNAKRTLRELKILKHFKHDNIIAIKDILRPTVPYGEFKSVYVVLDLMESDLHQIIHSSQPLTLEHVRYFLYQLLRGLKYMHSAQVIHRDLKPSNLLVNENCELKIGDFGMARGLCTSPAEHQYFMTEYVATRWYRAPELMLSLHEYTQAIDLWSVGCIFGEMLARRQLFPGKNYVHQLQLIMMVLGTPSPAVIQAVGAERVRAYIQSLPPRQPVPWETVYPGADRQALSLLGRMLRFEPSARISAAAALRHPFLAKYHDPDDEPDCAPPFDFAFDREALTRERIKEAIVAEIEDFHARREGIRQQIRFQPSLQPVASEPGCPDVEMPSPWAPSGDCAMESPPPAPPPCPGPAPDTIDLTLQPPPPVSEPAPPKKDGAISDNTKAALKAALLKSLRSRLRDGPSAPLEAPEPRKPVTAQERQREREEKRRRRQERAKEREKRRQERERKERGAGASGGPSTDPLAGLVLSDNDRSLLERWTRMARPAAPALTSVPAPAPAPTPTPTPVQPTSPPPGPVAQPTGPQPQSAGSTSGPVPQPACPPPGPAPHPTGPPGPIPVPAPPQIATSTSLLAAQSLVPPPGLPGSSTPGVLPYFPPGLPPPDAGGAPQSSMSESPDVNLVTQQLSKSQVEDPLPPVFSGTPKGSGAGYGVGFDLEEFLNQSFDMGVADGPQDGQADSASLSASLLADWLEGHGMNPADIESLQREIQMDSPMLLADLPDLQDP

[33] = target: Platelet-derived growth factor receptor beta (Homo sapiens) (UniProt P09619); conditions: Compound concentration 1000.0 nM
[34] = target: Calcium/calmodulin-dependent protein kinase type II subunit beta (Homo sapiens) (UniProt Q13554); conditions: Compound concentration 1000.0 nM
[35] = target: Serine/threonine-protein kinase tousled-like 2 (Homo sapiens) (UniProt Q86UE8); conditions: Compound concentration 1000.0 nM
Chain of Serine/threonine-protein kinase tousled-like 2 (Homo sapiens) (Q86UE8 whole entry, looked up): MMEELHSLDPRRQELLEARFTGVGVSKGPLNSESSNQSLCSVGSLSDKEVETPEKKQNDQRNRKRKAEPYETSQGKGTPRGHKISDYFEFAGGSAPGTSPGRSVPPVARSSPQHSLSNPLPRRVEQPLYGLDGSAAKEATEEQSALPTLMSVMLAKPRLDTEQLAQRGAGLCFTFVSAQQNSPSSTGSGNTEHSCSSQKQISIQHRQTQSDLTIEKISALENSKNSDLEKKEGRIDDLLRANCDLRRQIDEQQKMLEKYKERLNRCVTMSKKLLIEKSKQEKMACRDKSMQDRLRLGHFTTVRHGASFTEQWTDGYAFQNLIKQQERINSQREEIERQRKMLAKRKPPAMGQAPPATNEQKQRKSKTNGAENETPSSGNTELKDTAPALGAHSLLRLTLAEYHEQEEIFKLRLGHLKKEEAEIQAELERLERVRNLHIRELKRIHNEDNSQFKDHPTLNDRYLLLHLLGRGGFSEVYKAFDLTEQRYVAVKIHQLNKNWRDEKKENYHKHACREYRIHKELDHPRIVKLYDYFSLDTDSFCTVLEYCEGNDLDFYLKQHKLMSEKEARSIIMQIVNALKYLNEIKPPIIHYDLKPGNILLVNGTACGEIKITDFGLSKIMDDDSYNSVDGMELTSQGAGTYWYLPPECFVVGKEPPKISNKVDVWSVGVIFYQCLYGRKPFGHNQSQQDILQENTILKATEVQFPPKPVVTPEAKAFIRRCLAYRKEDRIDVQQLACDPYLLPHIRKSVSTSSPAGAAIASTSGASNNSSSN

[36] = target: Serine/threonine-protein kinase/endoribonuclease IRE1 (Homo sapiens) (UniProt O75460); conditions: Compound concentration 1000.0 nM
[37] = target: Mitogen-activated protein kinase kinase kinase kinase 4 (Homo sapiens) (UniProt O95819); conditions: Compound concentration 1000.0 nM
[38] = target: Vascular endothelial growth factor receptor 1 (Homo sapiens) (UniProt P17948); conditions: Compound concentration 1000.0 nM
[39] = target: Serine/threonine-protein kinase D3 (Homo sapiens) (UniProt O94806); conditions: Compound concentration 1000.0 nM

Cc1nccc(COC(=O)N2C[C@@H]3[C@@H](CNC(=O)c4ccc5[nH]nnc5c4)[C@@H]3C2)n1 [BI 3017]
inactive: residual activity [1] 77% | residual activity [2] 100% | residual activity [3] 100% | residual activity [4] 81% | inhibition [5] 7.45% | residual activity [6] 82% | residual activity [7] 100% | inhibition [8] 1.15% | residual activity [9] 87% | residual activity [10] 93% | residual activity [11] 94% | inhibition [12] -3.25% | residual activity [13] 100% | inhibition [14] -6.02% | residual activity [15] 79% | inhibition [16] 16.4% | residual activity [17] 100% | residual activity [18] 92% | residual activity [19] 89% | residual activity [20] 84% | residual activity [21] 97% | inhibition [22] -0.15% | residual activity [23] 79% | residual activity [24] 73% | residual activity [25] 85% | residual activity [26] 92% | residual activity [27] 100% | residual activity [28] 92% | residual activity [29] 86% | residual activity [30] 100% | residual activity [31] 95% | residual activity [32] 98% | residual activity [33] 84% | residual activity [34] 90% | residual activity [35] 100% | residual activity [36] 90% | residual activity [37] 99% | residual activity [38] 100% | residual activity [39] 100%

O=C(NC[C@@H]1[C@H]2CN(C(=O)OCc3cc(C(F)(F)F)cc(C(F)(F)F)c3)C[C@@H]12)c1ccc2[nH]nnc2c1 [BI 2545]
inactive: residual activity [1] 76% | residual activity [2] 96% | residual activity [3] 86% | residual activity [4] 82% | inhibition [5] 39.5% | residual activity [6] 87% | residual activity [7] 100% | inhibition [8] 25.2% | residual activity [9] 100% | residual activity [10] 92% | residual activity [11] 72% | inhibition [12] -9.34% | residual activity [13] 96% | inhibition [14] 31.5% | residual activity [15] 84% | inhibition [16] 8.82% | residual activity [17] 91% | residual activity [18] 83% | residual activity [19] 100% | residual activity [20] 98% | residual activity [21] 92% | inhibition [22] 28.1% | residual activity [23] 95% | residual activity [24] 89% | residual activity [25] 88% | residual activity [26] 94% | residual activity [27] 100% | residual activity [28] 89% | residual activity [29] 89% | residual activity [30] 97% | residual activity [31] 100% | residual activity [32] 100% | residual activity [33] 90% | residual activity [34] 100% | residual activity [35] 90% | residual activity [36] 77% | residual activity [37] 100% | residual activity [38] 82% | residual activity [39] 83%
